Results on two compounds are retold here after US8507219B2, “Method of treating inflammation with statins” (MUSC Foundation for Research Development, priority 1997, dated 2013).

Several values for one entry are separate records, joined by “and”; a condition that tells them apart may be missing. Equal entries are not always repeated. Entries after “also recorded” stand apart in the source; their conditions may differ.

The nature of assay [1]: Plasma total cholesterol in X-ALD patients on lovastatin. Type of assay: in vivo, human. The following applies: individual patients, at six months (Patients 1, 2, 3, 6, 7), four months (Patient 4), three months (Patient 5).
Assay [2] has as its system rat primary oligodendrocytes. Briefly: Apoptosis (DNA fragmentation, laddering) in rat primary oligodendrocytes. Type of assay: cell-based. The following applies: 10 mM NAC 1 h; diamide 0.5 mM, TNF-α 50 ng/ml or C2-ceramide; 12 h. As to the method: Detection of DNA fragmentation Cells (1×10^6) were pelleted in an eppendorf tube by centrifugation at 1,000 rpm for 5 min, washed with PBS (pH 7.4), resuspended gently in 50 μl of a lysis buffer [200 mM NaCl, 10 mM Tris-HCl (pH 8.0), 40 mM EDTA (pH 8.0), 0.5% SDS, 400 ng RNase A/μl] and incubated at 37° C. for 1 h. The lysate received 200 μl of the digestion buffer [200 mM NaCl, 10 mM Tris-HCl (pH 8.0), 0.5% SDS, 125 ng proteinase K/μl]. The contents were mixed by inversion several times and then incubated at 50° C. for 2 h. An equal volume of a mixture phenol (pH 8.0), chloroform and isoamyl alcohol (25:24:1, v/v) was added, gently mixed for 10 min, and stored at room temperature for 2 min. […] The gel was stained with ethidium bromide and DNA-intercalated ethidium fluorescence was photographed on Polaroid film 665 (P/N) using an orange filter. […]
Detection of DNA Fragmentation Cells (1×10^6) were pelleted in an Eppendorf tube by centrifugation at 1000 rpm for 5 min, washed with phosphate-buffered saline, pH 7.4, resuspended gently in 50 μl of a lysis buffer (200 mM NaCl, 10 mM Tris-HCl, pH 8.0, 40 mM EDTA, pH 8.0, 0.5% SDS, 400 ng of RNase A/μl), and incubated at 37° C. for 1 h. […] The gel was stained with ethidium bromide, and DNA-intercalated ethidium fluorescence was photographed on Polaroid film 665 (P/N) using an orange filter. […]

The test system of assay [3] is TNF-α production in rat resident macrophages. Briefly: LPS-/IFN-γ-induced TNF-α production (ELISA) in rat macrophages. The following applies: for inhibition at 20000 µM: Rattus norvegicus, Macrophage. Format: cell-based. On the procedure:
Resident macrophages cultured in serum-free RPMI 1640 medium received 20 mM NAC or 100 μM PDTC 2 h before the addition of stimuli. When stimuli were used separately their concentrations were: LPS, 1.0 μg/ml; IFN-γ, 200 U/ml, and when they were used together, their concentrations were: LPS, 0.2 μg/ml; IFN-γ, 50 U/ml. Supernatants were collected 24 h after the addition of stimuli to measure TNF-α concentration using ELISA as described.

As to `CC[C@H](C)C(=O)O[C@H]1C[C@@H](C)C=C2C=C[C@H](C)[C@H](CC[C@@H]3C[C@@H](O)CC(=O)O3)[C@H]21` [Lovastatin], the “Plasma Total Cholesterol After Treatment” value in assay [1] (after four months of treatment) is 167 mg/dL; in assay [1] (after six months of treatment) it was 158 mg/dL and 204 mg/dL and 230 mg/dL and 183 mg/dL and 96 mg/dL.

`CC(=O)N[C@@H](CS)C(=O)O` [NAC, N-acetyl cysteine]: in assay [2], the “ceramide formation and DNA fragmentation / apoptosis” value is “inhibited the induction of ceramide formation and DNA fragmentation; also recorded: had no effect on C2-ceramide-mediated apoptosis in oligodendrocytes”. For the same compound, the TNF-α in assay [3] (LPS 0.2 μg/ml + IFN-γ 50 U/ml, 20 mM NAC or 100 μM PDTC 2 h before, 24 h) turned out to be 2.3 ± 0.2 ng/24 h/mg protein; in assay [3] (LPS 1.0 μg/ml, 20 mM NAC or 100 μM PDTC 2 h before, 24 h), 1.6 ± 0.3 ng/24 h/mg protein; in assay [3] (antioxidant alone (20 mM NAC or 100 μM PDTC), no stimulus), 0.6 ± 0.2 ng/24 h/mg protein. The inhibition at 20000 µM in assay [3] (LPS 0.2 μg/ml + IFN-γ 50 U/ml, 20 mM NAC or 100 μM PDTC 2 h before) amounted to 93%; in assay [3] (LPS 1.0 μg/ml, 20 mM NAC or 100 μM PDTC 2 h before), 92%.
